The numbers were not newly measured in publication PMC11014758 (ACS infectious diseases, 2024), which cites them from elsewhere.

Data set [1] has as its target T1, LasR (Pseudomonas aeruginosa, UniProt P25084). The settings on record: same strain, analogous assay conditions; ref Moore et al. 2015 [15].
Data set [2] deals with T1, LasR. The settings on record: same strain, analogous assay conditions; ref Moore et al. 2015 [15]. The source holds these as a separate data set.

T1 sequence (P25084 whole entry): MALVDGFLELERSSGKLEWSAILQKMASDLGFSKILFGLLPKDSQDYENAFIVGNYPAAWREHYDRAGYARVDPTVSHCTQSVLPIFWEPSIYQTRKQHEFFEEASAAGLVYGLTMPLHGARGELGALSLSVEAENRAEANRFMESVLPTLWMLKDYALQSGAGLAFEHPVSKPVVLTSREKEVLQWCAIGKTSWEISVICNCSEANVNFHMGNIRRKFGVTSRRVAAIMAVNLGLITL

With `CCCCCCCCCC(=O)CC(=O)N[C@H]1CCOC1=O` [OdDHL, N-(3-oxo)-dodecanoyl L-homoserine lactone], the “Maximum Activation” value at LasR [1] is 100%.
For `CCCCCCCCCNC(=O)CC(=O)c1ccccc1` [V-06–018], at LasR [2], the IC50 was 5.2 µM.
In the case of chlorolactone [CL], on LasR [2], the IC50 was 21 µM and the “Maximum Inhibition” value is reported as 55%.

Usually IC50 stands for the concentration at which inhibition is half-maximal.
